Compound in one assay: O=[As]([O-])(O)O.[K+] [potassium arsenate]
In words: thermal stability z-score vs DMSO; higher = more thermally stabilized by treatment. As to conditions: HeLa; arsenate concentration 1 mM. On the procedure:
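Cellular thermal proteome profiling in HeLa cells treated with 1 mM arsenate for 1 h (DMSO pretreatment), heated to ten temperatures (37-66.3 °C). Soluble protein was quantified by TMT mass spectrometry relative to DMSO controls; the thermal stability score was transformed to a z-score; mean of n = 3 experiments.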

Compound in another assay: NC(=O)CCCCC1CCSS1 [lipoamide]
The assay is described as above. The following applies: HeLa, lipoamide concentration 100 µM. On the procedure: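 Cellular thermal proteome profiling in HeLa cells. Cells were treated with 100 µM lipoamide for 1 h, with or without 1 mM arsenate for a further 1 h, then heated to ten temperatures (37-66.3 °C), and soluble protein was quantified by TMT mass spectrometry relative to 0.1% DMSO controls. The thermal stability score (sum of log2 fold changes minus the abundance score) was transformed to a z-score; mean of n = 3 experiments.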

The mark [1] stands for this setting: arsenate co-treatment: 1 mM arsenate 1 h.
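Also: each temperature applied for 3 min, abundance score taken as mean log2 fold change at the two lowest temperatures, z-score obtained by mean subtraction and division by SD.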

Sequence of UniProt Q7Z569 (Q7Z569 whole entry): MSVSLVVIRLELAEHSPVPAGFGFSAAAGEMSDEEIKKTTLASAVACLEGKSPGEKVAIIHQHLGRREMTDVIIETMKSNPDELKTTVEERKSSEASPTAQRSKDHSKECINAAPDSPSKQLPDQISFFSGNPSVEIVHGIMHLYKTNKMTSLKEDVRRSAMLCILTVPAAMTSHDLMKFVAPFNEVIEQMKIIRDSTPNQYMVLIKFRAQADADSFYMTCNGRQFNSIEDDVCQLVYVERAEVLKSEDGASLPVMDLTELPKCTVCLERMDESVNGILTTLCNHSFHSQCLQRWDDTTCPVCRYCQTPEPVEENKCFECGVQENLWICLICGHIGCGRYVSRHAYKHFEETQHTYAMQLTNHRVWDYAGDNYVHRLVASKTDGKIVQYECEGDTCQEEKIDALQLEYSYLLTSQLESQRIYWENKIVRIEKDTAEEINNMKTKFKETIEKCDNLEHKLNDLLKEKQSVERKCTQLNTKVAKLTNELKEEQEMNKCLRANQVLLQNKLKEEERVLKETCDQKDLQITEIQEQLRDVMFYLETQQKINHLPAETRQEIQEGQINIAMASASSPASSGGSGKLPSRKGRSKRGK
Sequence of UniProt Q9Y680 (Q9Y680 whole entry): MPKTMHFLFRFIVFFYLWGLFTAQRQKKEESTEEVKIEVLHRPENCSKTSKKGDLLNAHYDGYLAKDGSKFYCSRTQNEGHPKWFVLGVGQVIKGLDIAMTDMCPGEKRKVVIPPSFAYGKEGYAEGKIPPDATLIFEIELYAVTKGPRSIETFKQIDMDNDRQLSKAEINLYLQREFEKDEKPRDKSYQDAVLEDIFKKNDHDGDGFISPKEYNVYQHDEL
Sequence of UniProt Q7KZI7 (Q7KZI7 whole entry): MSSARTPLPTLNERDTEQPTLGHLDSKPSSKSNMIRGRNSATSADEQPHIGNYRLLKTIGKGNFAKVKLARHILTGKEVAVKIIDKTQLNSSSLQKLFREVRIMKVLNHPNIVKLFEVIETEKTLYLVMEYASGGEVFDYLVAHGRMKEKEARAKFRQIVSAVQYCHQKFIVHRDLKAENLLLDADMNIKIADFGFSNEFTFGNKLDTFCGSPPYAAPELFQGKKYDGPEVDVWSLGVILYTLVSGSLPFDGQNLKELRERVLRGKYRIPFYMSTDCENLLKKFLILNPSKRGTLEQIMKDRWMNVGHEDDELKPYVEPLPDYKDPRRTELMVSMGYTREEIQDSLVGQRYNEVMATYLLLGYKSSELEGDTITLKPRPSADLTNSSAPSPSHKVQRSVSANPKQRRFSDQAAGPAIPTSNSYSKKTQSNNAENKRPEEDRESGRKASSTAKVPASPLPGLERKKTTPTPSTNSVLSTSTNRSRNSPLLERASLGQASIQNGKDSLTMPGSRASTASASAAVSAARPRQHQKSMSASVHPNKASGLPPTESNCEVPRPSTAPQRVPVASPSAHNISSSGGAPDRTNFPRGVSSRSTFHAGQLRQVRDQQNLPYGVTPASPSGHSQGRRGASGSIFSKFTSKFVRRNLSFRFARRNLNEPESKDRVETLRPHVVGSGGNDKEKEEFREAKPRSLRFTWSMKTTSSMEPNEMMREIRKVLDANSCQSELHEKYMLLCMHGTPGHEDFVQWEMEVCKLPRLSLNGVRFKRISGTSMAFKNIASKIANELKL
Sequence of UniProt Q07617 (Q07617 whole entry): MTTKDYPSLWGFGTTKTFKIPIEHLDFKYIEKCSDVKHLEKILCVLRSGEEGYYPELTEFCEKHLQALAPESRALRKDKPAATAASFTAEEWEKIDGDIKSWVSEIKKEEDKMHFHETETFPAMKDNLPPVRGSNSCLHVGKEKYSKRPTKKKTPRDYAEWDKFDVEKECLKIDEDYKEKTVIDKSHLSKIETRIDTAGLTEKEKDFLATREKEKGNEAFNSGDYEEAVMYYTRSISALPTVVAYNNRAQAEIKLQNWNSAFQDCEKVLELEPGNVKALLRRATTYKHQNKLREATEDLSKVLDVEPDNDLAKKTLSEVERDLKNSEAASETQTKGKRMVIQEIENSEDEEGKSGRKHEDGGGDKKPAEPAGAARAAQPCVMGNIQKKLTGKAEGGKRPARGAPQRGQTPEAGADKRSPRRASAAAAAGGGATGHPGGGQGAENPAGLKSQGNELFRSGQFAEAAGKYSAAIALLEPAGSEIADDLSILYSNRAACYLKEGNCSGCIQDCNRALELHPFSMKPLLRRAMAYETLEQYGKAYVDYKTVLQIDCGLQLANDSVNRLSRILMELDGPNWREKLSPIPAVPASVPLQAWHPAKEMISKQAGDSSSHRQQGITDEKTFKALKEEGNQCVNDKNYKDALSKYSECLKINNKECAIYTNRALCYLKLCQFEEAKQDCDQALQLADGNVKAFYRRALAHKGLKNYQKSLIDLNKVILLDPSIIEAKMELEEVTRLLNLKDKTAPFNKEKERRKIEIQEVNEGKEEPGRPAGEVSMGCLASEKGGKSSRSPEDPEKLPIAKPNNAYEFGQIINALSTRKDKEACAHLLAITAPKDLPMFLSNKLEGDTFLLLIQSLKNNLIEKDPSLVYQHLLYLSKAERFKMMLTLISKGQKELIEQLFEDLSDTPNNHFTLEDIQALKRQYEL
Sequence of UniProt P41567 (P41567 whole entry): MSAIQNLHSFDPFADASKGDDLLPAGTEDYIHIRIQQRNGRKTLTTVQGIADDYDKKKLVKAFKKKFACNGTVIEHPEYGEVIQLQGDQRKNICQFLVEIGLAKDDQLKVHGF
Sequence of UniProt Q9NZ45 (Q9NZ45 whole entry): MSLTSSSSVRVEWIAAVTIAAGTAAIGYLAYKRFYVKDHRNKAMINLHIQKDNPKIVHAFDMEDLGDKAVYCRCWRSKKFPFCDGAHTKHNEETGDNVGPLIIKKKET
Sequence of UniProt Q9NVC3 (Q9NVC3 whole entry): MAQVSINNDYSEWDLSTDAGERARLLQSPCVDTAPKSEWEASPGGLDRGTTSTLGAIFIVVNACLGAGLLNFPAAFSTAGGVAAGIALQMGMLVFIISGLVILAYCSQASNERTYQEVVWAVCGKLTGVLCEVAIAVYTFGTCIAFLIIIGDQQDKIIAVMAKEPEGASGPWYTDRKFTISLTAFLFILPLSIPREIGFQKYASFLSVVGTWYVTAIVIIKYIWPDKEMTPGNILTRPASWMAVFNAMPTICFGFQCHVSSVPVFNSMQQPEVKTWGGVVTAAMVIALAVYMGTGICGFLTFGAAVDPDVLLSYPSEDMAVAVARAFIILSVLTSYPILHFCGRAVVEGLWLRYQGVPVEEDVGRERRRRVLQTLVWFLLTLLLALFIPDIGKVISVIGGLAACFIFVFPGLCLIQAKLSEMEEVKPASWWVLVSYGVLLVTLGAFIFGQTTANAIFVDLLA
Sequence of UniProt Q5EBL8 (Q5EBL8 whole entry): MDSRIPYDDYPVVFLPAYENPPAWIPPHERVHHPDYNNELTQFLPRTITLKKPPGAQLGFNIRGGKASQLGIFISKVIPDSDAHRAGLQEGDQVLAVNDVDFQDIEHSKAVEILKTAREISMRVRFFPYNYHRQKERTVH
Sequence of UniProt Q13438 (Q13438 whole entry): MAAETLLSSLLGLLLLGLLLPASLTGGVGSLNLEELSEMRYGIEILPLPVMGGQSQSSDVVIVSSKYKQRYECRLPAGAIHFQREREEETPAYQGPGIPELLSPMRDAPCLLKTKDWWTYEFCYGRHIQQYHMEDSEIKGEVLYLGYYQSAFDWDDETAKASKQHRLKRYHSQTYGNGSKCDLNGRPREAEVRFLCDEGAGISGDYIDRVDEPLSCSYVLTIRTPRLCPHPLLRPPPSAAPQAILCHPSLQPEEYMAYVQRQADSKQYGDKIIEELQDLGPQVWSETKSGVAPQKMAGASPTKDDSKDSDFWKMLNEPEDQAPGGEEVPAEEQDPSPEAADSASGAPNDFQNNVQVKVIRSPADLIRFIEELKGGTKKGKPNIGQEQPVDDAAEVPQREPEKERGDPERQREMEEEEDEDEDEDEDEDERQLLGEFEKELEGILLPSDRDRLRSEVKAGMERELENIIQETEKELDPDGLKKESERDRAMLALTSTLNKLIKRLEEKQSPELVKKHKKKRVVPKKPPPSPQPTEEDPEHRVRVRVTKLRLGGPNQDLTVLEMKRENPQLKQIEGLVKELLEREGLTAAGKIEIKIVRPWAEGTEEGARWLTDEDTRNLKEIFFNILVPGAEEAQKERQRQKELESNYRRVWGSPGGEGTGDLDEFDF
Sequence of UniProt Q13011 (Q13011 whole entry): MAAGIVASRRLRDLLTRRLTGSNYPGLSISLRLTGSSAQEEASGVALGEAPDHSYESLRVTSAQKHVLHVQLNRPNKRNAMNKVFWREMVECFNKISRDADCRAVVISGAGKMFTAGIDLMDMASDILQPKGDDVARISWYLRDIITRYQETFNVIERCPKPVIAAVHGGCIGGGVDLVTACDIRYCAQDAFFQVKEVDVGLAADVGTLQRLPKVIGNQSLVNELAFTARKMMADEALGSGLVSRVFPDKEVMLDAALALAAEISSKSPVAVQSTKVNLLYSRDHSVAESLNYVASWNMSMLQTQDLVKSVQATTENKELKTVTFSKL
Sequence of UniProt P17029 (P17029 whole entry): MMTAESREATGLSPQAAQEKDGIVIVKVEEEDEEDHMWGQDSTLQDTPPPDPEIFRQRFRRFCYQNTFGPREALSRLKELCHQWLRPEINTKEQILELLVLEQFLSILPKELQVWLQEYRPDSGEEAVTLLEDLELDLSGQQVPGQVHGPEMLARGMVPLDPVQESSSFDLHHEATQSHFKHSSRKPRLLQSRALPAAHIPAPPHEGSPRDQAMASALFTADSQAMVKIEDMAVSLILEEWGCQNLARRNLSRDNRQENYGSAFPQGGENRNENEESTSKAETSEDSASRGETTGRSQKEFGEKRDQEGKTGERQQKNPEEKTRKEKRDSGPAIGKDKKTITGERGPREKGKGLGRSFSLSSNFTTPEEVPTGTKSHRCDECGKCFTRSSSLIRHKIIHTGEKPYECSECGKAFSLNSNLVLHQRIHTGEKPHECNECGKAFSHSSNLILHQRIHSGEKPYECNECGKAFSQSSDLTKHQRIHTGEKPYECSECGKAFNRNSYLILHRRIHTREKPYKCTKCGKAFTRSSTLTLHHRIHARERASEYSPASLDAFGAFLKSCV

As for SMCHD1 (UniProt A6NHR9), the results for the thermal stability z-score with potassium arsenate, with lipoamide (setting [1]) and in the assay with lipoamide (arsenate co-treatment: none) were -0.528, -0.13 and -0.0876, respectively.
Turning to BRAP (UniProt Q7Z569), the thermal stability z-score in the assay with potassium arsenate was 0.485; with lipoamide (setting [1]), -0.31; in the assay with lipoamide (arsenate co-treatment: none), 0.051.
The corresponding values for EIF1 (UniProt P41567) are -0.193, -0.179 and -0.0958.
In the case of IAH1 (UniProt Q2TAA2), the thermal stability z-score with potassium arsenate is -0.173; with lipoamide (setting [1]), 0.672; with lipoamide (arsenate co-treatment: none) it was 0.79.
The corresponding values for SLC25A29 (UniProt Q8N8R3) are -0.111, 0.136 and -0.0401.
The corresponding values for MFN2 (UniProt O95140) are 0.252, -0.0814 and -0.338.
In the case of ERMP1 (UniProt Q7Z2K6), the thermal stability z-score in the assay with potassium arsenate was 0.227; with lipoamide (setting [1]), 0.0556; with lipoamide (arsenate co-treatment: none), -0.119.
Turning to PDZD11 (UniProt Q5EBL8), the thermal stability z-score in the assay with potassium arsenate was 0.0963; with lipoamide (setting [1]) it was -0.0819; with lipoamide (arsenate co-treatment: none), -0.0179.
The corresponding values for POLR2I (UniProt P36954) are -2.41, 1.79 and 0.367.
With TRAPPC5 (UniProt Q8IUR0), the thermal stability z-score is 0.00376 in the assay with potassium arsenate, 1.28 in the assay with lipoamide (setting [1]) and -0.246 with lipoamide (arsenate co-treatment: none).
Consider SERPINI1 (UniProt Q99574), for which the values for the thermal stability z-score with potassium arsenate, with lipoamide (setting [1]) and with lipoamide (arsenate co-treatment: none) were 0.709, -0.495 and 0.0132, respectively.
The corresponding values for FKBP7 (UniProt Q9Y680) are -0.253, -4.17 and -4.05.
In the case of HERPUD1 (UniProt Q15011), the thermal stability z-score with potassium arsenate was -0.94; with lipoamide (setting [1]), 0.186; with lipoamide (arsenate co-treatment: none) it was -0.201.
The corresponding values for CDC23 (UniProt Q9UJX2) are -0.726, -0.546 and -0.315.
The corresponding values for MARK2 (UniProt Q7KZI7) are 0.0503, -0.0322 and 0.0698.
The corresponding values for SOD2 (UniProt P04179) are 0.195, 0.512 and 0.261.
Take BST2 (UniProt Q10589): the thermal stability z-score in the assay with potassium arsenate was found to be 0.172; with lipoamide (setting [1]) it was 0.265; with lipoamide (arsenate co-treatment: none), 0.606.
With SLC38A7 (UniProt Q9NVC3), the results for the thermal stability z-score in the assay with potassium arsenate, with lipoamide (setting [1]) and in the assay with lipoamide (arsenate co-treatment: none) were -0.442, -0.543 and -0.964, respectively.
The corresponding values for RRM1 (UniProt P23921) are 0.11, 0.219 and 0.204.
The corresponding values for LPCAT3 (UniProt Q6P1A2) are 0.724, 0.125 and 0.0829.
In the case of SPAG1 (UniProt Q07617), the values for the thermal stability z-score with potassium arsenate, in the assay with lipoamide (setting [1]) and in the assay with lipoamide (arsenate co-treatment: none) were -0.401, 0.0825 and 0.0754, respectively.
For GSPT1 (UniProt P15170), the thermal stability z-score with potassium arsenate is 0.226; with lipoamide (setting [1]) it was -0.00711; with lipoamide (arsenate co-treatment: none), 0.472.
The corresponding values for CRYZ (UniProt Q08257) are 0.207, 0.232 and 0.229.
With TSPAN6 (UniProt O43657), the thermal stability z-score with potassium arsenate amounted to 0.466; with lipoamide (setting [1]) it was 0.216; with lipoamide (arsenate co-treatment: none), 0.486.
The corresponding values for CSTF1 (UniProt Q05048) are -1.45, -0.533 and 0.0516.
The corresponding values for ECH1 (UniProt Q13011) are -0.0954, -0.108 and 0.163.
In the case of MRPL33 (UniProt O75394), the thermal stability z-score in the assay with potassium arsenate was -0.812; in the assay with lipoamide (setting [1]), -0.539; with lipoamide (arsenate co-treatment: none), -0.723.
The corresponding values for CFL2 (UniProt Q9Y281) are -0.466, 0.497 and 0.000804.
Consider PMF1 (UniProt Q6P1K2), for which the thermal stability z-score in the assay with potassium arsenate is 0.367; with lipoamide (setting [1]), 0.0314; with lipoamide (arsenate co-treatment: none) it was -0.0395.
The corresponding values for DIMT1 (UniProt Q9UNQ2) are -0.418, 0.142 and 0.0753.
For the target FLOT2 (UniProt Q14254), the thermal stability z-score is -1.32 with potassium arsenate, 0.746 with lipoamide (setting [1]) and 0.534 with lipoamide (arsenate co-treatment: none).
In the case of RCN2 (UniProt Q14257), the thermal stability z-score is 0.788 with potassium arsenate, -3.71 with lipoamide (setting [1]) and -2.81 in the assay with lipoamide (arsenate co-treatment: none).
The corresponding values for MIF (UniProt P14174) are -0.0642, 0.245 and -0.0795.
CLUH (UniProt O75153): the thermal stability z-score was -0.134 in the assay with potassium arsenate, 0.336 with lipoamide (setting [1]) and 1.47 in the assay with lipoamide (arsenate co-treatment: none).
On to CISD1 (UniProt Q9NZ45), for which the thermal stability z-score with potassium arsenate was -0.578; in the assay with lipoamide (setting [1]), 0.257; with lipoamide (arsenate co-treatment: none), 0.707.
The corresponding values for UACA (UniProt Q9BZF9) are 0.02, -0.163 and -0.0805.
The corresponding values for FAM60A (UniProt Q9NP50) are -0.681, 0.0806 and 0.262.
Consider EIF5 (UniProt P55010), for which the results for the thermal stability z-score with potassium arsenate, with lipoamide (setting [1]) and in the assay with lipoamide (arsenate co-treatment: none) were -1.08, 0.0938 and 0.375, respectively.
Turning to OS9 (UniProt Q13438), the thermal stability z-score is 0.706 with potassium arsenate, -3.59 with lipoamide (setting [1]) and -3.15 with lipoamide (arsenate co-treatment: none).
The corresponding values for TROVE2 (UniProt P10155) are -0.238, -0.23 and -0.235.
Regarding CLPTM1L (UniProt Q96KA5), the values for the thermal stability z-score with potassium arsenate, with lipoamide (setting [1]) and in the assay with lipoamide (arsenate co-treatment: none) were 0.279, -2.13 and -1.51, respectively.
The corresponding values for ZKSCAN1 (UniProt P17029) are 0.128, -0.0617 and 0.0599.

Source of the values: the supplement of paper PMC12463676, “Small-molecule dissolution of stress granules by redox modulation benefits ALS models” (Nature Chemical Biology, 2025).
